Measurements published in patent US20100260683A1, “THERMOLABILE LIPOSOME WITH CONTROLLED RELEASE TEMPERATURE” (MAX-PLANCK-GESELLSCHAFT ZUR FORDERUNG DER WISSENCHAFTEN E.V., priority 2001, published 2010).

Test: Main transition temperature (TM) of phosphatidylcholines
Assay type: physicochemical
Conditions: acyl chains at positions 1 and 2 of glycero-3-phosphocholine or 1 and 3 of glycero-2-phosphocholine
Experimental: The abovementioned preferred composition of the liposome according to the invention can be made to measure for other temperature ranges by choice of components having the main transition temperature suitable in each case. In table 1, the main transition temperatures (TM) of phosphatidylcholines are indicated whose main transition temperature lies in the range from 0 to 80° C. The main transition temperatures are recognizable as from the table, depending on the chain length and the distribution over the positions 1 and 2 of glycero-3-phosphocholine or 1 and 3 of glycero-2-phosphocholine.

| Structure (SMILES) | TM (main transition temperature) [°C] |
| --- | --- |
| CCCCCCCCCCCCCCCCCCCCCC(=O)OC[C@H](COP(=O)([O-])OCC[N+](C)(C)C)OC(=O)CCCCCCCCCCCCCCCCCCCCC [1,2-dibehenoyl-] | 75 |
| CCCCCCCCCCCCCC(=O)OCC(COC(=O)CCCCCCCCCCCCC)OP(=O)([O-])OCC[N+](C)(C)C [1,3-dimyristoyl-] | 19 |
| CCCCCCCCCCCCCC(=O)OC[C@H](COP(=O)([O-])OCC[N+](C)(C)C)OC(=O)CCCCCCCCCCCCC [1,2-dimyristoyl-] | 23 |
| CCCCCCCC/C=C\CCCCCCCC(=O)O[C@H](COC(=O)CCCCCCCCCCCCCCCCCCCCC)COP(=O)([O-])OCC[N+](C)(C)C [1-behenoyl-2-oleoyl-] | 14 |
| CCCCCCCCCCCCCCCC(=O)OCC(COP(=O)([O-])OCC[N+](C)(C)C)OC(=O)CCCCCCCCCCCCCCC (stereo not drawn) [1,2-dipalmitoyl-, 1,2-di-palmitoylglycero-3-phosphocholine] | 41 |
| CCCCCCCCCCCCCCCC(=O)OC(COC(=O)CCCCCCCCCCCCC)COP(=O)([O-])OCC[N+](C)(C)C (stereo not drawn) [1-myristoyl-2-palmitoyl] | 37 |
| CCCCCCCCCCCCCCCCCC(=O)OCC(COP(=O)([O-])OCC[N+](C)(C)C)OC(=O)CCCCCCCCCCCCCCCCC (stereo not drawn) [1,2-distearoyl-, 1,2-distearoylglycero-3-phospho-choline] | 56 |
| CCCCCCCCCCCCCCCCCC(=O)O[C@H](COC(=O)CCCCCCCCCCCCC)COP(=O)([O-])OCC[N+](C)(C)C [1-myristoyl-2-stearoyl-] | 42 |
| CCCCCCCCCCCCCCCCCCCC(=O)OC[C@H](COP(=O)([O-])OCC[N+](C)(C)C)OC(=O)CCCCCCCCCCCCCCCCCCC [1,2-diarachinoyl-] | 66 |
| CCCCCCCCCCCCCCCC(=O)OCC(COC(=O)CCCCCCCCCCCCCCC)OP(=O)([O-])OCC[N+](C)(C)C [1,3-dipalmitoyl-] | 39 |
| CCCCCCCCCCCCCCCCCCCCCCCC(=O)OC[C@H](COP(=O)([O-])OCC[N+](C)(C)C)OC(=O)CCCCCCCCCCCCCCCCCCCCCCC [1,2-dilignoceroyl-] | 80 |
| CCCCCCCCCCCCCCCCCC(=O)OCC(COC(=O)CCCCCCCCCCCCCCCCC)OP(=O)([O-])OCC[N+](C)(C)C [1,3-distearoyl-] | 53 |

Continued, values first:

| TM (main transition temperature) [°C] | Structure (SMILES) |
| --- | --- |
| 33 | CCCCCCCCCCCCCCCCCC(=O)OC[C@H](COP(=O)([O-])OCC[N+](C)(C)C)OC(=O)CCCCCCCCCCCCC [1-stearoyl-2-myristoyl-] |
| 17 | CCCCCCCCCCCCCCCCCC(=O)OC[C@H](COP(=O)([O-])OCC[N+](C)(C)C)OC(=O)CCCCCCCCCCC [1-stearoyl-2-lauroyl-] |
| 48 | CCCCCCCCCCCCCCCCCC(=O)OC[C@H](COP(=O)([O-])OCC[N+](C)(C)C)OC(=O)CCCCCCCCCCCCCCC [1-stearoyl-2-palmitoyl-] |
| 27 | CCCCCCCCCCCCCCCC(=O)OC[C@H](COP(=O)([O-])OCC[N+](C)(C)C)OC(=O)CCCCCCCCCCCCC [1-palmitoyl-2-myristoyl-] |
| 52 | CCCCCCCCCCCCCCCCCC(=O)O[C@H](COC(=O)CCCCCCCCCCCCCCC)COP(=O)([O-])OCC[N+](C)(C)C [1-palmitoyl-2-stearoyl-] |
| 5 | CCCCCCCC/C=C\CCCCCCCC(=O)O[C@H](COC(=O)CCCCCCCCCCCCCCC)COP(=O)([O-])OCC[N+](C)(C)C [1-palmitoyl-2-oleoyl-] |
| 46 | CCCCCCCCCCCCCCCCCC(=O)OCC(COC(=O)CCCCCCCCCCCCC)OP(=O)([O-])OCC[N+](C)(C)C (stereo not drawn) [1-stearoyl-3-myristoyl-] |
| 7 | CCCCCCCC/C=C\CCCCCCCC(=O)O[C@H](COC(=O)CCCCCCCCCCCCCCCCC)COP(=O)([O-])OCC[N+](C)(C)C [1-stearoyl-2-oleoyl-] |
| 11 | CCCCCCCCCCCCCCCC(=O)OC[C@H](COP(=O)([O-])OCC[N+](C)(C)C)OC(=O)CCCCCCCCCCC [1-palmitoyl-2-lauroyl-] |
